Reference: the supplement of paper PMC10307832

Experiments:
Assay in all cases: relative viability (nuclei count vs DMSO), 5 days (fraction); higher = more cells survive
201T = tested on: 201T
In short: (§1)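 One day after seeding in 1536-well plates, lung cancer cell lines were dosed by pin tool. Dosing was either single-drug or a fixed anchor-drug dose plus five library-drug doses (not always all listed) in √10 steps. After 5 days, nuclei were stained in one fix-and-stain step and counted on 4× images, and relative viability is the nuclei count of treated wells over that of vehicle wells, given as the median of duplicate plates.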

BEN = tested on: BEN
In short: as §1

COR-L 105 = tested on: COR-L 105
In short: as §1

EMC-BAC-2 = tested on: EMC-BAC-2
In short: as §1

H3255 = tested on: H3255
In short: as §1

HARA = tested on: HARA
In short: as §1

HCC-78 = tested on: HCC-78
In short: as §1

HOP-62 = tested on: HOP-62
In short: as §1

LC-2-ad = tested on: LC-2-ad
In short: as §1

LOU-NH91 = tested on: LOU-NH91
In short: as §1

LU99A = tested on: LU99A
In short: as §1

LXF-289 = tested on: LXF-289
In short: as §1

NCI-H1395 = tested on: NCI-H1395
In short: as §1

NCI-H1563 = tested on: NCI-H1563
In short: as §1

NCI-H1993 = tested on: NCI-H1993
In short: as §1

NCI-H2087 = tested on: NCI-H2087
In short: as §1

NCI-H2126 = tested on: NCI-H2126
In short: as §1

NCI-H2170 = tested on: NCI-H2170
In short: as §1

NCI-H650 = tested on: NCI-H650
In short: as §1

RERF-LC-KJ = tested on: RERF-LC-KJ
In short: as §1

SK-MES-1 = tested on: SK-MES-1
In short: as §1

UMC-11 = tested on: UMC-11
In short: as §1

In the case of `Cc1csc(=NC2CCCCC2)n1/N=C/c1ccc(O)c(O)c1O` [MIM1] + CS(=O)(=O)N1CCN(Cc2cc3nc(-c4cccc5[nH]ncc45)nc(N4CCOCC4)c3s2)CC1 [Pictilisib] (partner 1 µM), the relative viability (201T; first compound 0.2 µM) is reported as 0.688, the relative viability (201T; first compound 0.6325 µM) is reported as 0.659 and the relative viability (201T; first compound 2 µM) is reported as 0.645. For the same molecule, the relative viability (201T; first compound 6.325 µM) was 0.654, the relative viability (201T; first compound 20 µM) was 0.61 and the relative viability (BEN; first compound 0.2 µM) was 0.607. For the same molecule, the relative viability (BEN; first compound 0.6325 µM) was 0.594, the relative viability (BEN; first compound 2 µM) was 0.604 and the relative viability (BEN; first compound 6.325 µM) was 0.531. For the same molecule, the relative viability (BEN; first compound 20 µM) was 0.279, the relative viability (COR-L 105; first compound 0.2 µM) was 0.424 and the relative viability (COR-L 105; first compound 0.6325 µM) was 0.366. For the same molecule, the relative viability (COR-L 105; first compound 2 µM) was 0.344, the relative viability (COR-L 105; first compound 6.325 µM) was 0.384 and the relative viability (COR-L 105; first compound 20 µM) was 0.291. The relative viability (EMC-BAC-2; first compound 0.2 µM) was 0.538, the relative viability (EMC-BAC-2; first compound 0.6325 µM) was 0.479 and the relative viability (EMC-BAC-2; first compound 2 µM) was 0.542. The relative viability (EMC-BAC-2; first compound 6.325 µM) was 0.562, the relative viability (EMC-BAC-2; first compound 20 µM) was 0.238 and the relative viability (H3255; first compound 0.2 µM) was 0.429. For the same molecule, the relative viability (H3255; first compound 0.6325 µM) was 0.54, the relative viability (H3255; first compound 2 µM) was 0.459 and the relative viability (H3255; first compound 6.325 µM) was 0.478. It also gave a relative viability (H3255; first compound 20 µM) of 0.416, a relative viability (HARA; first compound 0.2 µM) of 0.333 and a relative viability (HARA; first compound 0.6325 µM) of 0.328. It also gave a relative viability (HARA; first compound 2 µM) of 0.476, a relative viability (HARA; first compound 6.325 µM) of 0.307 and a relative viability (HARA; first compound 20 µM) of 0.124. It also gave a relative viability (HCC-78; first compound 0.2 µM) of 0.251, a relative viability (HCC-78; first compound 0.6325 µM) of 0.23 and a relative viability (HCC-78; first compound 2 µM) of 0.228. It also gave a relative viability (HCC-78; first compound 6.325 µM) of 0.34, a relative viability (HCC-78; first compound 20 µM) of 0.185 and a relative viability (HOP-62; first compound 0.2 µM) of 0.803. The relative viability (HOP-62; first compound 0.6325 µM) was 0.437, the relative viability (HOP-62; first compound 2 µM) was 0.724 and the relative viability (HOP-62; first compound 6.325 µM) was 0.642. The relative viability (HOP-62; first compound 20 µM) was 0.127, the relative viability (LC-2-ad; first compound 0.2 µM) was 0.437 and the relative viability (LC-2-ad; first compound 0.6325 µM) was 0.373. It also gave a relative viability (LC-2-ad; first compound 2 µM) of 0.508, a relative viability (LC-2-ad; first compound 6.325 µM) of 0.406 and a relative viability (LC-2-ad; first compound 20 µM) of 0.12. It also gave a relative viability (LOU-NH91; first compound 0.2 µM) of 0.534, a relative viability (LOU-NH91; first compound 0.6325 µM) of 0.524 and a relative viability (LOU-NH91; first compound 2 µM) of 0.47. For the same molecule, the relative viability (LOU-NH91; first compound 6.325 µM) was 0.506, the relative viability (LOU-NH91; first compound 20 µM) was 0.382 and the relative viability (LU99A; first compound 0.2 µM) was 0.394. For the same molecule, the relative viability (LU99A; first compound 0.6325 µM) was 0.344, the relative viability (LU99A; first compound 2 µM) was 0.303 and the relative viability (LU99A; first compound 6.325 µM) was 0.306. For the same molecule, the relative viability (LU99A; first compound 20 µM) was 0.233, the relative viability (LXF-289; first compound 0.2 µM) was 0.757 and the relative viability (LXF-289; first compound 0.6325 µM) was 0.689. It also gave a relative viability (LXF-289; first compound 2 µM) of 0.823, a relative viability (LXF-289; first compound 6.325 µM) of 0.676 and a relative viability (LXF-289; first compound 20 µM) of 0.522. It also gave a relative viability (NCI-H1395; first compound 0.2 µM) of 0.666, a relative viability (NCI-H1395; first compound 0.6325 µM) of 0.61 and a relative viability (NCI-H1395; first compound 2 µM) of 0.509. It also gave a relative viability (NCI-H1395; first compound 6.325 µM) of 0.377, a relative viability (NCI-H1395; first compound 20 µM) of 0.365 and a relative viability (NCI-H1563; first compound 0.2 µM) of 0.628. The relative viability (NCI-H1563; first compound 0.6325 µM) was 0.672, the relative viability (NCI-H1563; first compound 2 µM) was 0.636 and the relative viability (NCI-H1563; first compound 6.325 µM) was 0.61. The relative viability (NCI-H1563; first compound 20 µM) was 0.4, the relative viability (NCI-H1993; first compound 0.2 µM) was 0.829 and the relative viability (NCI-H1993; first compound 0.6325 µM) was 0.92. For the same molecule, the relative viability (NCI-H1993; first compound 2 µM) was 0.827, the relative viability (NCI-H1993; first compound 6.325 µM) was 0.776 and the relative viability (NCI-H1993; first compound 20 µM) was 0.764. The relative viability (NCI-H2087; first compound 0.2 µM) was 0.959, the relative viability (NCI-H2087; first compound 0.6325 µM) was 0.588 and the relative viability (NCI-H2087; first compound 2 µM) was 0.969. The relative viability (NCI-H2087; first compound 6.325 µM) was 0.584, the relative viability (NCI-H2087; first compound 20 µM) was 0.315 and the relative viability (NCI-H2126; first compound 0.2 µM) was 0.516. It also gave a relative viability (NCI-H2126; first compound 0.6325 µM) of 0.481, a relative viability (NCI-H2126; first compound 2 µM) of 0.482 and a relative viability (NCI-H2126; first compound 6.325 µM) of 0.467. The relative viability (NCI-H2126; first compound 20 µM) was 0.344, the relative viability (NCI-H2170; first compound 0.2 µM) was 0.394 and the relative viability (NCI-H2170; first compound 0.6325 µM) was 0.28. It also gave a relative viability (NCI-H2170; first compound 2 µM) of 0.321, a relative viability (NCI-H2170; first compound 6.325 µM) of 0.272 and a relative viability (NCI-H2170; first compound 20 µM) of 0.238. It also gave a relative viability (NCI-H650; first compound 0.2 µM) of 0.988, a relative viability (NCI-H650; first compound 0.6325 µM) of 0.944 and a relative viability (NCI-H650; first compound 2 µM) of 0.987. The relative viability (NCI-H650; first compound 6.325 µM) was 0.975, the relative viability (NCI-H650; first compound 20 µM) was 0.505 and the relative viability (RERF-LC-KJ; first compound 0.2 µM) was 0.504. The relative viability (RERF-LC-KJ; first compound 0.6325 µM) was 0.488, the relative viability (RERF-LC-KJ; first compound 2 µM) was 0.484 and the relative viability (RERF-LC-KJ; first compound 6.325 µM) was 0.415. The relative viability (RERF-LC-KJ; first compound 20 µM) was 0.225, the relative viability (SK-MES-1; first compound 0.2 µM) was 0.358 and the relative viability (SK-MES-1; first compound 0.6325 µM) was 0.346. For the same molecule, the relative viability (SK-MES-1; first compound 2 µM) was 0.388, the relative viability (SK-MES-1; first compound 6.325 µM) was 0.283 and the relative viability (SK-MES-1; first compound 20 µM) was 0.252. For the same molecule, the relative viability (UMC-11; first compound 0.2 µM) was 0.753, the relative viability (UMC-11; first compound 0.6325 µM) was 0.203 and the relative viability (UMC-11; first compound 2 µM) was 0.853. It also gave a relative viability (UMC-11; first compound 6.325 µM) of 0.687 and a relative viability (UMC-11; first compound 20 µM) of 0.17.
